According to PubChem BioAssay AID179 (DTP/NCI, 2004):
“And” between values parts separate entries of the source, which are not always exact repeats. Equal values may be shown once. The source made the active and inactive calls.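 How the source made its calls: active means compounds giving half or more protection of infected cells from virus-caused growth loss, again on retest; inactive means the rest.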

Test system: CEM cells HIV-1 protection, formazan growth assay
Test: NCI AIDS Antiviral Assay
Details: for IC50: measured here: growth of uninfected CEM cells
Procedure, shortened: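 Category rules: moderately active means at least 50% protection on retest, and confirmed active means 100% protection reproducibly. The underlying data came from a formazan growth assay in HIV-1-infected CEM cells.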

Row | Compound | EC50 [µM] | IC50 | outcome
1 | O=c1c(O)c(-c2ccc(O)c(O)c2)oc2cc(O)ccc12 | > 550 | 55 µM and 25.7 µM | 
2 | c1ccc(CNc2nncc3[nH]cnc23)cc1 | > 200 | > 200 µM | 
3 | O=C(NCCN1CCCC1)c1cn2c(ccc3sc4ccccc4c(=O)c32)n1 | > 200 | 1.26 µM | 
4 | O=C(/C=C/c1ccccc1)/C=C/c1ccccc1 |  |  | inactive
5 | Cc1c(C(=O)C/C(=N/NC(=O)c2ccccc2O)C(=O)Nc2ccccc2C(C)C)[n+](=O)c2ccccc2n1[O-] | > 6.92 | > 6.92 µM | 
6 | Brc1cccc(C2SCc3nc4ccccc4n32)c1 (stereo not drawn) |  |  | inactive
7 | C/C=C1\CN(C)C2Cc3c([nH]c4ccccc34)C(c3cc4c5c([nH]c4cc3OC)C3(C(=O)OC)CC4CC(CC)C3N(CC5)C4)CC1C2C(=O)OC (stereo not drawn) |  |  | inactive
8 | COC(=O)/C(=N\N)C(C(=O)C(=O)Nc1cc(Cl)ccc1Cl)c1nc2ccc([N+](=O)[O-])cc2[nH]c1=O (stereo not drawn) | > 182 | 83.2 µM | 
9 | Cc1ccc2cc([N+](=O)[O-])c3ccc(C)nc3c2n1 | > 200 | 3.16 µM | 
10 | Cc1cn(Cc2ccccc2CCO)c(=S)[nH]c1=O | > 912 | > 912 µM | 
11 | CSc1nnc(SC)nn1 | > 200 | 0.851 µM | 
12 | COC(=O)C12C3C4C1C1C2C3C41C(=O)NC(C)(C)CC(=O)O (stereo not drawn) | > 200 | > 200 µM | 
13 | COc1ccc(-n2c(=O)n(C)c(=O)n2-c2c(C)c(C)c(C)c(C)c2C)cc1 | > 100 | 18.6 µM | 
14 | CC1=CCCC2C(C=O)(C1)CC(C)C2(CO)CC/C(=C/CO)CO (stereo not drawn) |  |  | inactive
15 | O=C(O)c1ccc2c(c1)S(=O)(=O)c1ccccc1C2=O | > 200 | > 200 µM | 
16 | CCCCC1(OC(=O)CCC(=O)O)CCC2(CCC(C)C(C/C=C(C)/C=C/C(O)C(C)/C=C/C(=O)O)O2)OC1CC/C(C)=C/C(=O)O (stereo not drawn) | > 3.8 | 1.29 µM | 
17 | O=C1C2=C(c3ccccc31)C(c1ccc([N+](=O)[O-])cc1)NC(=S)N2 (stereo not drawn) | > 138 | 28.2 µM | 
18 | ON=C(C1CC1)C1CC1 | > 200 | > 200 µM | 
19 | COc1cc2ccccc2cc/c1=N\O | > 200 | 41.7 µM | 
20 | CC(OC(=O)C(CC(=O)OC(C)(C)C)NC(=O)OC(C)(C)C)C(=O)OCc1ccccc1 (stereo not drawn) | > 200 | > 200 µM | 
21 | O=C1c2ccccc2C2(c3ccc(Cl)cc3)N[C@@H]3CCCC[C@@H]3N12 (stereo partly drawn) | > 200 | > 200 µM | 
22 | CCOC(=O)[C@H]1C[C@@H](C(=O)c2ccccc2)N2N=C(c3ccc(Br)cc3)C=C[C@H]12 | > 100 | > 100 µM | 

Row | Compound | EC50 [µM] | IC50 | outcome
23 | CCOC(=O)C1OC12CCC(C(C)(C)C)CC2 (stereo not drawn) | > 200 | 191 µM | 
24 | CCCCCCCCCCCCCCCC(=O)Nc1ccn(C2CCC(COP(=O)(O)OCC3OC(n4ccc(NC(=O)CCCCCCCCCCCCCCC)nc4=O)CC3OP(=O)(O)OCC3OC(n4cc(C)c(=O)[nH]c4=O)CC3N=[N+]=[N-])O2)c(=O)n1 (stereo not drawn) | 0.0282 | 15.1 µM | 
25 | Cc1cc([N+](=O)[O-])ccc1Sc1c2ccccc2nc2ccccc12 | > 20.9 | > 20.9 µM | 
26 | NC(=O)c1c(Cl)nc2n1CCS2 | > 200 | > 200 µM | 
27 | CCOC(=O)c1cnc2c(ccc3[nH]n(C)nc32)c1=O | > 251 | > 251 µM | 
28 | CC(=O)NCCC1CN(C(=O)/C=C\I)c2ccccc21 (stereo not drawn) | > 200 | 9.33 µM | 
29 | O=S(=O)(O)c1ccc(NN(c2c(O)ccc3ccccc23)S(=O)(=O)O)cc1 | > 550 | 229 µM | 
30 | COC(=O)C(Cc1c[nH]c2ccccc12)NP(=O)(O)OCC1OC(n2cc(Br)c(=O)[nH]c2=O)CC1O (stereo not drawn) | > 200 | > 200 µM | 
31 | O=C(O)c1ccccc1-c1c2ccc(=O)cc-2oc2cc(O)ccc12 | > 316 | 58.9 µM | 
32 | CN=C(N)NC | > 1480 | > 1480 µM | 
33 | NCCCN(CCCN)CCN(CCN(CCCN)CCCN)CCN(CCCN)CCCN | > 200 | 57.5 µM | 
34 | Nc1ccccc1C(=O)/C=C/c1ccccc1O | > 74.1 | 52.5 µM | 
35 | CCOC(=O)C1(C)CCCC1N (stereo not drawn) | > 200 | > 200 µM | 
36 | O=C(O)c1ccc(CSc2ccccc2C(=O)O)cc1 | > 126 | > 126 µM | 
37 | CC1(C)NC(=S)NC1=O | > 200 | > 200 µM | 
38 | CCCCCCCSCC(O)COC(c1ccccc1)(c1ccccc1)c1ccccc1 (stereo not drawn) | > 200 | 30.2 µM | 
39 | OCC1OC(OC[C@H](COCc2ccccc2)OCc2ccccc2)C(O)C(O)C1O (stereo partly drawn) | > 35.5 | > 35.5 µM | 
40 | O=C(CC(C(=O)c1ccsc1)c1cccs1)c1ccccc1 (stereo not drawn) | > 200 | 49 µM | 
41 | Nc1ccc(SSc2ccc(N)cc2)cc1 | > 200 | 25.1 µM and 29.5 µM | 
42 | Oc1ccc2c(c1)OCC(O)(c1ccccc1O)C2 (stereo not drawn) |  |  | inactive
43 | O=[N+]([O-])C1CC/C(=N/O)c2nonc21 (stereo not drawn) | > 200 | 123 µM | 
44 | O=C(/C=C(\Nc1ccccc1O)c1ccccc1)C(=O)NC12CC3CC(CC(C3)C1)C2 | > 200 | > 200 µM | 

Row | Compound | EC50 [µM] | IC50 | outcome
45 | CC(C)(C)NNC(=O)CCn1[nH]c(=O)c(Cl)c(Cl)c1=O | > 407 | > 407 µM | 
46 | Cc1cccc(C)c1NC(=O)C(=O)Cc1nc2ccccc2s1 |  |  | inactive
47 | OCC(O)CSSCC(O)C(O)CSSCC(O)CO (stereo not drawn) |  |  | inactive
48 | O=C1OC2C(O)COC2(O)C1(O)C(C[N+](=O)[O-])c1ccc(Cl)cc1 (stereo not drawn) | > 200 | 17 µM | 
49 | O=S(=O)(O)c1cc(O)c2c(O)cc(S(=O)(=O)O)cc2c1 | 347 | 550 µM | 
50 | COc1ccc2[nH]c(=O)cc(C)c2c1[N+](=O)[O-] |  |  | inactive
51 | COC(=O)C1(NC(=O)C(N)CC(=O)O)CC1(C)C (stereo not drawn) | > 200 | > 200 µM | 
52 | COc1ccn(C)c(=O)c1C#N | > 1510 | > 1510 µM | 
53 | O=C(/C(=C/c1ccc([N+](=O)[O-])cc1)c1ccccc1)c1ccccc1 | > 8.32 | 5.25 µM | 
54 | NN=C1/C(=C\c2ccccc2)CCC/C1=C/c1ccccc1 | > 64.6 | > 64.6 µM | 
55 | O=C1CC2c3c(OCc4ccccc4)cc(OCc4ccccc4)cc3OC2O1 (stereo not drawn) | > 25.7 | > 25.7 µM | 
56 | Cc1cccc(NC(=O)CC2C(=O)Nc3ccccc3S2(=O)=O)c1C (stereo not drawn) | > 5.62 | > 5.62 µM | 
57 | COC(=O)C1=C(C(=O)Nc2cccnc2Cl)N(c2ccc(OC)cc2[N+](=O)[O-])C(c2ccc(C)cc2)=CC1c1ccc(OC)cc1OC (stereo not drawn) | > 100 | 1.95 µM | 
58 | CCCCCCCCCCCCCCCCCC1=Nc2cc(C)c(C)cc2NC(=O)C1 | > 100 | > 100 µM | 
59 | CC(=O)N(O)c1ccccc1-c1ccccc1 | > 200 | 102 µM | 
60 | O=C(OCc1c(-c2ccccc2)nn(-c2ccccc2)c1COC(=O)Oc1ccccc1)Oc1ccccc1 | > 200 | > 200 µM | 
61 | Cc1cc(NC(=O)c2ccc(N=Nc3c(S(=O)(=O)O)cc4cc(NC(=O)c5ccc(N)cc5)ccc4c3O)cc2)ccc1N=Nc1ccc2cc(S(=O)(=O)O)cc(S(=O)(=O)O)c2c1 |  |  | active
62 | CC(=O)OC1CC[C@]2(C)C3CC[C@@]4(C)C(CCC4[C@H](C)CCCC(C)C)[C@@H]3CCC2(Br)C1 (stereo partly drawn) |  |  | inactive
63 | O=C1c2ccccc2N2OC3(N4CCOCC4)CCCC3C12c1ccccc1 (stereo not drawn) | > 5.37 | > 5.37 µM | 
64 | CC(O)CN1c2ccccc2Sc2ccccc21 (stereo not drawn) | > 200 | > 200 µM | 
65 | CC(=O)O[C@@H]1C2CCC3C(CC[C@@]4(C)C3CC[C@@H]4C(C)N(C)C)[C@@]2(C)C[C@H](O)[C@@H]1NC(=O)c1ccccc1 (stereo partly drawn) | > 1.38 | > 1.38 µM | 
66 | CC1(C(=O)O)CCC(C(=O)O)C(C)(C)O1 (stereo not drawn) | > 200 | > 200 µM | 

Row | Compound | EC50 [µM] | IC50 | outcome
67 | FC(F)(F)c1nc(-c2ccccc2)oc1Sc1nnc(Sc2oc(-c3ccccc3)nc2C(F)(F)F)s1 |  |  | inactive
68 | Clc1ccc(CCc2ccncn2)c(Cl)c1 | > 398 | 38 µM | 
69 | COc1ccc(C(c2c(O)c3ccccc3n(-c3ccccc3)c2=O)c2c(O)c3ccccc3n(-c3ccccc3)c2=O)cc1 | > 8.71 | > 8.71 µM | 
70 | O=C(O)c1cc(N=Nc2ccc(/C=C/c3ccc(N=Nc4cc(C(=O)O)c(O)c5ccccc45)cc3S(=O)(=O)O)c(S(=O)(=O)O)c2)c2ccccc2c1O | 46.8 | 72.4 µM | 
71 | NC(=S)/N=C/c1c(O)c2ccccc2oc1=O | > 55 | > 55 µM | 
72 | C=CCOCn1cc(C)c(=O)[nH]c1=O | > 200 | > 200 µM | 
73 | CCCC1(CCC)c2cc(/C=N\O)ccc2-c2ccc(-c3ccc(C(C)(C)C)cc3)cc21 | > 200 | 37.2 µM | 
74 | O=C1/C(=C/c2ccccc2Cl)COc2ccccc21 | > 19.1 | 11.2 µM | 
75 | OC1(c2ccccc2)CC2CCC(C1)N2CCc1ccccc1 (stereo not drawn) | > 200 | 102 µM | 
76 | NC1=NN(c2ccccc2)C(=O)C1/C(=N\NC(=O)c1cc2ccccc2cc1O)C(=O)Nc1cccc(C(F)(F)F)c1 (stereo not drawn) | > 6.61 | > 6.61 µM | 
77 | Cc1ccc(S(=O)(=O)N2CCNCCN(S(=O)(=O)c3ccc(C)cc3)CCN(S(=O)(=O)c3ccc(C)cc3)CC2)cc1 | > 200 | > 200 µM | 
78 | CCCCC=C(c1cc(Cl)c(OC)c(C(=O)OC)c1)c1cc(Cl)c(OC)c(C(=O)OC)c1 | > 5.62 | > 5.62 µM | 
79 | Cc1ccc(-c2n[nH]c(=O)n2N)cc1 | > 200 | > 200 µM | 
80 | OC1C2[C@@H](O)CCCN2C[C@@H](O)[C@H]1O (stereo partly drawn) | > 200 | > 200 µM | 
81 | O=c1[nH]c2c(c(=O)[nH]1)SC(c1ccccc1)C2 (stereo not drawn) | > 200 | > 200 µM | 
82 | Clc1ccc(Cl)c(-c2nc3ccccc3[nH]2)c1 | > 97.7 | > 97.7 µM | 
83 | [N-]=[N+]=Nc1ccc2c(c1)Sc1ccccc1N2CCCCN1CCN(Cc2ccc(C(=O)c3ccc(CSCC(N)C(=O)O)cc3)cc2)CC1 (stereo not drawn) | > 200 | 32.4 µM | 
84 | COc1ccc(-n2nnnc2C2(Nc3ccccc3)CCN(Cc3ccccc3)CC2)cc1 | > 200 | > 200 µM | 
85 | O=C(C[n+]1ccncc1)c1ccc2c(c1)CCCC2 | 0.0631 | > 200 µM | 
86 | C[C@@H](NC(=O)c1ccccc1SC(=O)OCCBr)C(N)=O | 4.57 | > 200 µM | 
87 | Cc1cc(C)cc(N(C2C3CCC(C)(C2O)C3(C)C)S(=O)(=O)c2ccccc2)c1 (stereo not drawn) | > 200 | 24.5 µM | 
